Experimental data reported in PMC11724075, “Small-molecule-induced ERBB4 activation to treat heart failure” (Nature Communications, 2025).
“And” between values parts separate entries of the source, which are not always exact repeats. Equal entries are not always repeated.

Legend:
[1] = tested on: mouse model of MI; assay: Mouse model of MI (LAD ligation), echocardiography; format: in vivo; parameters: left-ventricular end-diastolic volume / left-ventricular end-systolic volume: unit not given here
Protocol: Twelve-week-old female and male Balb/cJ (Charles River, 000651) mice were randomized into either the ctrl or MI group. Mice in the MI group underwent surgical ligation of the LAD, while mice in the ctrl group underwent a sham procedure (n = 8 female mice, n = 10 male mice). Briefly, all mice received an injection of 0.1 mg/kg buprenorphine (Produlab Pharma) before induction of anesthesia with 8% sevoflurane (Zoetis). Anesthesia was maintained with 4.5% sevoflurane and mice were intubated and ventilated. An incision of 15 mm was made on the left side of the thorax and the thoracic cavity was opened at the third intercostal space using blunt forceps. The LAD was permanently ligated with a 8/0 polypropylene monofilament sutures (Ethicon, F1894) after which the thoracic cavity and skin were closed with 6/0 polypropylene monofilament sutures (Ethicon, F1841). and 5/0 polyamide 6 sutures (Ethilon, F2412H), respectively. Mice received another dose of 0.1 mg/kg buprenorphine 6–8 h after the initial dose. Two days after surgery, cardiac ultrasound was performed to exclude mice without successful MI (i.e. displaying hypokinesia in ≥2 out of 5 segments). […] Cardiac ultrasound was performed weekly. After 4 weeks of treatment, mice were euthanized, and hearts were collected.
Echocardiography was performed using the Vevo F2-LAZRX (FUJIFILM VisualSonics) and UHF57x probe. Mice were anesthetized with 1.5% isoflurane (Alvira, BE-V512222). Parasternal long-axis B-mode images and M-mode images were obtained and analyzed using VevoLAB software (FUJIFILM VisualSonics, Version 5.7.1). For the AngII experiments, measurements were obtained through analysis of the short-axis M-mode. For the MI experiments, measurements were obtained through analysis of the parasternal long-axis B-mode, of which the area and end-volume of the left ventricular cavity in diastole and systole were determined by tracing the endocardial border. Acquisitions, measurements and analyses were performed blinded.
Supplementary Table 2. Echocardiographic parameters. […]
Echocardiographic parameters obtained through left ventricular trace analysis of the parasternal long-axis obtained in B-mode in female wild-type mice that underwent a sham or MI operation: mice with […]
in MI/EF-1 group). (g) Echocardiographic parameters obtained through left ventricular trace analysis of the parasternal long-axis obtained in B-mode in male wild-type mice that underwent a sham or MI […]
male mice in MI/Veh group for T2 and T4). Echocardiographic parameters were measured weekly (indicated by ‘T’). All data are presented as mean (value of individual mice) ± SD, two-tailed unpaired […]
1 groups. Source data are provided as a Source Data file. AngII, angiotensin II; ANOVA, analysis of variance; Ctrl, control; DOX, doxorubicin; EF, ejection fraction; ERBB4, erythroblastic leukemia viral oncogene homolog 4; FS, fractional shortening; IVSd, interventricular septum thickness in diastole; IVSs, interventricular septum thickness in systole; LVIDd, left ventricular internal diameter in diastole; LVIDs, left ventricular internal diameter in systole; LVPWd, left ventricular posterior wall thickness in diastole; LVPWs, left ventricular posterior wall thickness in systole; MI, myocardial infarction; NA, non-activating pharmacophore-containing compound; SD, standard variation; Veh, vehicle.

[2] = not given; remark: listed apart in the source
[3] = tested on: Akt phosphorylation (pAkt/Akt); parameters: method as in PMID 14654373; details: cited from earlier work
[4] = Myocardial infarction, female wild-type mice, MI/EF-1, T0
[5] = Myocardial infarction, female wild-type mice, MI/EF-1, T2
[6] = Myocardial infarction, female wild-type mice, MI/EF-1, T3
[7] = Myocardial infarction, female wild-type mice, MI/EF-1, T4
[8] = Myocardial infarction, male wild-type mice, MI/EF-1, T0
[9] = Myocardial infarction, male wild-type mice, MI/EF-1, T2
[10] = Myocardial infarction, male wild-type mice, MI/EF-1, T3
[11] = Myocardial infarction, male wild-type mice, MI/EF-1, T4
[12] = female wild-type mice, MI/EF-1, T0, mean ± SD
[13] = female wild-type mice, MI/EF-1, T2, mean ± SD
[14] = female wild-type mice, MI/EF-1, T3, mean ± SD
[15] = female wild-type mice, MI/EF-1, T4, mean ± SD
[16] = male mice, MI/EF-1, 0 weeks after MI
[17] = male wild-type mice, MI/EF-1, T0, mean ± SD
[18] = male wild-type mice, MI/EF-1, T2, mean ± SD
[19] = male wild-type mice, MI/EF-1, T3, mean ± SD
[20] = male wild-type mice, MI/EF-1, T4, mean ± SD

O=C(NC1CC1)C(Sc1nc2ccccc2c(=O)n1C1CCCC1)c1ccccc1 (stereo not shown) [EF-1]
LVEDA [1, 4]: 21.8 ± 1.4 mm² | LVEDV [1, 4]: 56.7 ± 5.5 µL | LVESA [1, 4]: 15.5 ± 2.1 mm² | LVESV [1, 4]: 32.7 ± 6.7 µL | LVEDA [1, 5]: 25.7 ± 1.6 mm² | LVEDV [1, 5]: 73.6 ± 9.1 µL | LVESA [1, 5]: 20.8 ± 2.9 mm² | LVESV [1, 5]: 53.9 ± 14.5 µL | LVEDA [1, 6]: 26.5 ± 4.5 mm² | LVEDV [1, 6]: 80.3 ± 22.9 µL | LVESA [1, 6]: 21.2 ± 5.8 mm² | LVESV [1, 6]: 56.6 ± 25.0 µL | LVEDA [1, 7]: 26.5 ± 4.5 mm² | LVEDV [1, 7]: 80.3 ± 22.9 µL | LVESA [1, 7]: 21.2 ± 5.8 mm² | LVESV [1, 7]: 56.6 ± 25.0 µL | LVEDA [1, 8]: 24.7 ± 3.9 mm² | LVEDV [1, 8]: 67.1 ± 15.6 µL | LVESA [1, 8]: 17.6 ± 2.8 mm² | LVESV [1, 8]: 37.3 ± 8.9 µL | LVEDA [1, 9]: 34.8 ± 5.5 mm² | LVEDV [1, 9]: 118.7 ± 30.8 µL | LVESA [1, 9]: 29.7 ± 6.7 mm² | LVESV [1, 9]: 93.3 ± 36.1 µL | LVEDA [1, 10]: 36.6 ± 5.9 mm² | LVEDV [1, 10]: 124.6 ± 35.3 µL | LVESA [1, 10]: 31.3 ± 8.0 mm² | LVESV [1, 10]: 100.4 ± 42.0 µL | LVEDA [1, 11]: 35.9 ± 6.9 mm² | LVEDV [1, 11]: 119.8 ± 37.5 µL | LVESA [1, 11]: 30.5 ± 7.7 mm² | LVESV [1, 11]: 92.5 ± 40.6 µL | effect on MI-induced increase in LVEDV and LVESV (in words) ([1]; female mice, four-week treatment, EF-1 2 mg/kg/day): significantly attenuated the increase in LVEDV and LVESV | effect on left ventricular ejection fraction (in words) ([1]; female mice, four-week treatment, p = 0.0858): trend towards an increased EF | EF (ejection fraction) [1, 12]: 42.7 ± 8.1% | LVEDA [1, 12]: 21.8 ± 1.4 mm² | LVEDV [1, 12]: 56.7 ± 5.5 µL | LVESA [1, 12]: 15.5 ± 2.1 mm² | LVESV [1, 12]: 32.7 ± 6.7 µL | EF (ejection fraction) [1, 13]: 27.4 ± 14.1% | LVEDA [1, 13]: 25.7 ± 1.6 mm² | LVEDV [1, 13]: 73.6 ± 9.1 µL | LVESA [1, 13]: 20.8 ± 2.9 mm² | LVESV [1, 13]: 53.9 ± 14.5 µL | EF (ejection fraction) [1, 14]: 32.2 ± 12.4% | LVEDA [1, 14]: 26.5 ± 4.5 mm² | LVEDV [1, 14]: 80.3 ± 22.9 µL | LVESA [1, 14]: 21.2 ± 5.8 mm² | LVESV [1, 14]: 56.6 ± 25.0 µL | EF (ejection fraction) [1, 15]: 32.2 ± 12.4% | LVEDA [1, 15]: 26.5 ± 4.5 mm² | LVEDV [1, 15]: 80.3 ± 22.9 µL | LVESA [1, 15]: 21.2 ± 5.8 mm² | LVESV [1, 15]: 56.6 ± 25.0 µL | effect on LVEDV, LVESV, or EF (in words) ([1]; male mice): did not have affect LVEDV, LVESV, or EF | ejection fraction [1, 16]: 45.4182 and 46.7993 and 31.6272 and 37.5306 and 56.6563 | left-ventricular end-diastolic volume [1, 16]: 76.7178 and 76.3835 and 40.6948 and 76.4847 and 65.2387 | left-ventricular end-systolic volume [1, 16]: 41.874 and 40.6361 and 27.8242 and 47.7795 and 28.2468 | left-ventricular end-diastolic volume ([1]; male mice, MI/EF-1, 3 weeks after MI): 90.4868 and 146.112 and 167.204 and 86.1633 and 133.043 | EF (ejection fraction) [1, 17]: 43.6 ± 9.5% | LVEDA [1, 17]: 24.7 ± 3.9 mm² | LVEDV [1, 17]: 67.1 ± 15.6 µL | LVESA [1, 17]: 17.6 ± 2.8 mm² | LVESV [1, 17]: 37.3 ± 8.9 µL | EF (ejection fraction) [1, 18]: 23.2 ± 12.8% | LVEDA [1, 18]: 34.8 ± 5.5 mm² | LVEDV [1, 18]: 118.7 ± 30.8 µL | LVESA [1, 18]: 29.7 ± 6.7 mm² | LVESV [1, 18]: 93.3 ± 36.1 µL | EF (ejection fraction) [1, 19]: 22.0 ± 15.7% | LVEDA [1, 19]: 36.6 ± 5.9 mm² | LVEDV [1, 19]: 124.6 ± 35.3 µL | LVESA [1, 19]: 31.3 ± 8.0 mm² | LVESV [1, 19]: 100.4 ± 42.0 µL | EF (ejection fraction) [1, 20]: 25.2 ± 11.5% | LVEDA [1, 20]: 35.9 ± 6.9 mm² | LVEDV [1, 20]: 119.8 ± 37.5 µL | LVESA [1, 20]: 30.5 ± 7.7 mm² | LVESV [1, 20]: 92.5 ± 40.6 µL | half-life with mouse microsomes: 0.25 h | half-life with human liver microsomes [2]: > 6 h

neuregulin-1 [NRG1]
time of peak NRG1-induced Akt phosphorylation [3]: 15 min
